From ChEMBL document CHEMBL3046389, “Synthesis and biological evaluation of novel hydroquinone dimethyl ethers as potential anticancer and antimicrobial agents” (2013)

Legend:
Format in all cases: functional
RPMI-8226 = assay: Anticancer activity against Homo sapiens (human) RPMI8226 cells after 48 hr by SRB assay; conditions: RPMI-8226, 48 h; for CC50: read-out: LC50 (the source's name)
HL-60(TB) = assay: Anticancer activity against Homo sapiens (human) HL-60(TB) cells after 48 hr by SRB assay; conditions: HL-60, 48 h; for CC50: read-out: LC50 (the source's name)
HCC 2998 [1] = assay: Growth inhibition of Homo sapiens (human) HCC2998 cells at 10 uM after 48 hr by SRB assay; conditions: HCC 2998, 48 h, read-out: GI
NCI-H460 [2] = assay: Growth inhibition of Homo sapiens (human) NCI-H460 cells at 10 uM after 48 hr by SRB assay; conditions: NCI-H460, 48 h, read-out: GI
T47D = assay: Growth inhibition of Homo sapiens (human) T47D cells at 10 uM after 48 hr by SRB assay; conditions: read-out: GI
U-251 = assay: Anticancer activity against Homo sapiens (human) U251 cells after 48 hr by SRB assay; conditions: U-251, 48 h; for CC50: read-out: LC50 (the source's name)
SNB-75 = assay: Anticancer activity against Homo sapiens (human) SNB75 cells after 48 hr by SRB assay; conditions: SNB-75, 48 h; for CC50: read-out: LC50 (the source's name)
SNB-19 = assay: Anticancer activity against Homo sapiens (human) SNB19 cells after 48 hr by SRB assay; conditions: SNB-19, 48 h; for CC50: read-out: LC50 (the source's name)
SF-295 [3] = assay: Anticancer activity against Homo sapiens (human) SF295 cells after 48 hr by SRB assay; conditions: SF-295, 48 h; for CC50: read-out: LC50 (the source's name)
SF-268 = assay: Anticancer activity against Homo sapiens (human) SF268 cells after 48 hr by SRB assay; conditions: SF-268, 48 h; for CC50: read-out: LC50 (the source's name)
KM12 [4] = assay: Anticancer activity against Homo sapiens (human) KM12 cells after 48 hr by SRB assay; conditions: KM12, 48 h; for CC50: read-out: LC50 (the source's name)
HT-29 = assay: Anticancer activity against Homo sapiens (human) HT-29 cells after 48 hr by SRB assay; conditions: HT-29, 48 h; for CC50: read-out: LC50 (the source's name)
HCT-116 = assay: Anticancer activity against Homo sapiens (human) HCT116 cells after 48 hr by SRB assay; conditions: HCT-116, 48 h; for CC50: read-out: LC50 (the source's name)
HCC 2998 [5] = assay: Anticancer activity against Homo sapiens (human) HCC2998 cells after 48 hr by SRB assay; conditions: HCC 2998, 48 h; for CC50: read-out: LC50 (the source's name)
NCI-H522 = assay: Anticancer activity against Homo sapiens (human) NCI-H522 cells after 48 hr by SRB assay; conditions: NCI-H522, 48 h; for CC50: read-out: LC50 (the source's name)
NCI-H460 [6] = assay: Anticancer activity against Homo sapiens (human) NCI-H460 cells after 48 hr by SRB assay; conditions: NCI-H460, 48 h; for CC50: read-out: LC50 (the source's name)
NCI-H322M = assay: Anticancer activity against Homo sapiens (human) NCI-H322M cells after 48 hr by SRB assay; conditions: for CC50: read-out: LC50 (the source's name)
MOLT-4 = assay: Growth inhibition of Homo sapiens (human) MOLT4 cells at 10 uM after 48 hr by SRB assay; conditions: MOLT-4, 48 h, read-out: GI
BT-549 = assay: Anticancer activity against Homo sapiens (human) BT549 cells after 48 hr by SRB assay; conditions: BT-549, 48 h; for CC50: read-out: LC50 (the source's name)
MDA-MB-231 = assay: Anticancer activity against Homo sapiens (human) MDA-MB-231/ATCC cells after 48 hr by SRB assay; conditions: MDA-MB-231, 48 h; for CC50: read-out: LC50 (the source's name)
TK-10 = assay: Anticancer activity against Homo sapiens (human) TK10 cells after 48 hr by SRB assay; conditions: TK-10, 48 h; for CC50: read-out: LC50 (the source's name)
ACHN = assay: Anticancer activity against Homo sapiens (human) ACHN cells after 48 hr by SRB assay; conditions: for CC50: read-out: LC50 (the source's name)
RXF 393 = assay: Growth inhibition of Homo sapiens (human) RXF393 cells at 10 uM after 48 hr by SRB assay; conditions: RXF 393, 48 h, read-out: GI
786-0 = assay: Growth inhibition of Homo sapiens (human) 786-0 cells at 10 uM after 48 hr by SRB assay; conditions: 786-0, 48 h, read-out: GI
OVCAR-8 = assay: Anticancer activity against Homo sapiens (human) OVCAR8 cells after 48 hr by SRB assay; conditions: OVCAR-8, 48 h
OVCAR-4 = assay: Anticancer activity against Homo sapiens (human) OVCAR4 cells after 48 hr by SRB assay; conditions: OVCAR-4, 48 h; for CC50: read-out: LC50 (the source's name)
UACC-62 [7] = assay: Anticancer activity against Homo sapiens (human) UACC62 cells after 48 hr by SRB assay; conditions: UACC-62, 48 h
UACC-62 [8] = assay: Growth inhibition of Homo sapiens (human) UACC62 cells at 10 uM after 48 hr by SRB assay; conditions: UACC-62, 48 h, read-out: GI
MDA-MB-435 = assay: Growth inhibition of Homo sapiens (human) MDA-MB-435 cells at 10 uM after 48 hr by SRB assay; conditions: MDA-MB-435, 48 h, read-out: GI
Malme-3M = assay: Growth inhibition of Homo sapiens (human) MALME-3M cells at 10 uM after 48 hr by SRB assay; conditions: read-out: GI
SF-295 [9] = assay: Growth inhibition of Homo sapiens (human) SF295 cells at 10 uM after 48 hr by SRB assay; conditions: SF-295, 48 h, read-out: GI
KM12 [10] = assay: Growth inhibition of Homo sapiens (human) KM12 cells at 10 uM after 48 hr by SRB assay; conditions: KM12, 48 h, read-out: GI

## COc1ccc(OC)c(/C=C/C(=O)N/N=C/c2ccc(Cl)cc2)c1
RPMI-8226
  GI50: 0.3 µM
  TGI: 15.7 µM
  CC50: > 100 µM
HL-60(TB)
  GI50: 0.0785 µM
  TGI: 0.483 µM
  CC50: > 100 µM
HCC 2998 [1]
  inhibition of growth at 10 µM: 97.7%
NCI-H460 [2]
  inhibition of growth at 10 µM: 94.8%
T47D
  inhibition of growth at 10 µM: 70.5%
U-251
  GI50: 0.184 µM
  TGI: 1.49 µM
  CC50: > 100 µM
SNB-75
  GI50: 0.098 µM
  TGI: 1.17 µM
  CC50: > 100 µM
SNB-19
  GI50: 0.34 µM
  TGI: > 100 µM
  CC50: > 100 µM
SF-295 [3]
  GI50: 0.129 µM
  TGI: 6.44 µM
  CC50: > 100 µM
SF-268
  GI50: 0.718 µM
  TGI: > 100 µM
  CC50: > 100 µM
KM12 [4]
  GI50: 0.0522 µM
  TGI: 8.48 µM
  CC50: > 100 µM
HT-29
  GI50: 0.0435 µM
  TGI: 1.52 µM
  CC50: > 100 µM
HCT-116
  GI50: 0.075 µM
  TGI: 3.05 µM
  CC50: > 100 µM
HCC 2998 [5]
  GI50: 0.139 µM
  TGI: 1.19 µM
  CC50: 6.52 µM
NCI-H522
  GI50: 0.0292 µM
  TGI: 0.382 µM
  CC50: > 100 µM
NCI-H460 [6]
  GI50: 0.119 µM
  TGI: 13.8 µM
  CC50: > 100 µM
NCI-H322M
  GI50: 0.666 µM
  TGI: > 100 µM
  CC50: > 100 µM
MOLT-4
  inhibition of growth at 10 µM: 73.7%
BT-549
  GI50: 1.17 µM
  TGI: > 100 µM
  CC50: > 100 µM
MDA-MB-231
  GI50: 1.37 µM
  TGI: > 100 µM
  CC50: > 100 µM
TK-10
  GI50: 0.691 µM
  TGI: > 100 µM
  CC50: > 100 µM
ACHN
  GI50: 1.49 µM
  TGI: > 100 µM
  CC50: > 100 µM
RXF 393
  inhibition of growth at 10 µM: 120%
786-0
  inhibition of growth at 10 µM: 83.3%
OVCAR-8
  GI50: 0.35 µM
  LC50: > 100 µM
  TGI: > 100 µM
OVCAR-4
  GI50: 0.439 µM
  TGI: > 100 µM
  CC50: > 100 µM
UACC-62 [7]
  GI50: 0.068 µM
  LC50: > 100 µM
  TGI: > 100 µM
UACC-62 [8]
  inhibition of growth at 10 µM: 57.9%
MDA-MB-435
  inhibition of growth at 10 µM: 132%
Malme-3M
  inhibition of growth at 10 µM: 45.9%
SF-295 [9]
  inhibition of growth at 10 µM: 68.2%
KM12 [10]
  inhibition of growth at 10 µM: 82%

## COc1ccc(OC)c(/C=C/C(=O)N/N=C/c2ccccc2)c1
RPMI-8226
  GI50: 2.99 µM
  TGI: 9.96 µM
  CC50: > 100 µM
HL-60(TB)
  GI50: 2.03 µM
  TGI: 13.7 µM
  CC50: > 100 µM
HCC 2998 [1]
  inhibition of growth at 10 µM: 33.6%
NCI-H460 [2]
  inhibition of growth at 10 µM: 86.5%
T47D
  inhibition of growth at 10 µM: 60.3%
U-251
  GI50: 3.68 µM
  TGI: > 100 µM
  CC50: > 100 µM
SNB-75
  GI50: 4.39 µM
  TGI: 37.3 µM
  CC50: > 100 µM
SNB-19
  GI50: 4.12 µM
  TGI: > 100 µM
  CC50: > 100 µM
SF-295 [3]
  GI50: 1 µM
  TGI: 11.1 µM
  CC50: > 100 µM
SF-268
  GI50: 7.56 µM
  TGI: > 100 µM
  CC50: > 100 µM
KM12 [4]
  GI50: 0.834 µM
  TGI: 3.75 µM
  CC50: 29.4 µM
HT-29
  GI50: 2.1 µM
  TGI: > 100 µM
  CC50: > 100 µM
HCT-116
  GI50: 2.64 µM
  TGI: 10.2 µM
  CC50: 67.2 µM
HCC 2998 [5]
  GI50: 2.35 µM
  TGI: 21 µM
  CC50: 94.5 µM
NCI-H522
  GI50: 1.57 µM
  TGI: 41.7 µM
  CC50: > 100 µM
NCI-H460 [6]
  GI50: 2.08 µM
  TGI: 5.62 µM
  CC50: 28.3 µM
NCI-H322M
  GI50: 5.22 µM
  TGI: > 100 µM
  CC50: > 100 µM
MOLT-4
  inhibition of growth at 10 µM: 63.5%
BT-549
  GI50: 4.05 µM
  TGI: 90.4 µM
  CC50: > 100 µM
MDA-MB-231
  GI50: 7.24 µM
  TGI: > 100 µM
  CC50: > 100 µM
TK-10
  GI50: 16.6 µM
  TGI: > 100 µM
  CC50: > 100 µM
ACHN
  GI50: 9.66 µM
  TGI: > 100 µM
  CC50: > 100 µM
RXF 393
  inhibition of growth at 10 µM: 54.6%
786-0
  inhibition of growth at 10 µM: 45.7%
OVCAR-8
  GI50: 5.44 µM
  LC50: > 100 µM
  TGI: 94.6 µM
OVCAR-4
  GI50: 14.3 µM
  TGI: > 100 µM
  CC50: > 100 µM
UACC-62 [7]
  GI50: 3.55 µM
  LC50: > 100 µM
  TGI: 75.8 µM
UACC-62 [8]
  inhibition of growth at 10 µM: 39%
MDA-MB-435
  inhibition of growth at 10 µM: 108%
Malme-3M
  inhibition of growth at 10 µM: 41%
SF-295 [9]
  inhibition of growth at 10 µM: 51.5%
KM12 [10]
  inhibition of growth at 10 µM: 69%
